{"source": "patent US20100249138A1", "about": "“MPZP: A SMALL MOLECULE CORTICOTROPIN-RELEASING FACTOR TYPE 1 RECEPTOR (CRF1) ANTOGONIST” (priority 2007, published 2010)", "key": {"[1]": {"tested_on": "defensive burying model of active anxiety-like behavior", "settings": "doses similar to 3.6-27.5 mg/kg; Fekete et al. 2003; cited from earlier work"}, "CRF1 receptors": {"target": "T1, CRF1 receptors (Rattus norvegicus, UniProt P35353)", "T1 sequence (P35353 24-415)": "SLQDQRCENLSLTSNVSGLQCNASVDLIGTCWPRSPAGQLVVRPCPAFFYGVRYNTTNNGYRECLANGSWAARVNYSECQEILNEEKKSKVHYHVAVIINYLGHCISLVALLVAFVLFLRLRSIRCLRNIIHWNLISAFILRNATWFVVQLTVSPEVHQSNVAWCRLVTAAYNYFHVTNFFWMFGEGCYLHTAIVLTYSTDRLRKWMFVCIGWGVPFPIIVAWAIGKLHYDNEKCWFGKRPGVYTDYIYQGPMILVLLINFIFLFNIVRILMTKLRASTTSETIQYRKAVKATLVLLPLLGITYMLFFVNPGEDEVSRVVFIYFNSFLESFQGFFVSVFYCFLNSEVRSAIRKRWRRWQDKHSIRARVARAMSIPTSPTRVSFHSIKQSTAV", "test": "CRF receptor autoradiography, rat brain sections, CRF1-rich regions", "assay_type": "binding", "set-up": "from tissue", "protocol": "For CRF receptor autoradiography, brain tissue was sectioned coronally (20 μm) using a cryostat (−17° C.). Sections were mounted on Superfrost Plus+ charged glass slides (Fisher Scientific, Pittsburgh, Pa.), permitted to dry completely, and stored in airtight boxes at −80° C. until the day of autoradiography. Autoradiography was performed using standard procedures based on the previous characterization of [^125I]Tyr^0-sauvagine [Grigoriadis et al., Mol. Pharmacol. (1996) 50:679-686].\nSlides containing triplicate adjacent brain sections were thawed to room temperature and permitted to dry completely. Each section then was outlined using a PAP pen (Calbiochem, San Diego, Calif.). Sections were incubated in assay buffer (DPBS with 10 mM MgCl2, 2 mM EGTA, 1 tablet/100 ml protease inhibitor, 0.15% bovine serum albumin) for 15 minutes to remove endogenous ligand. Slides then were incubated under one of four conditions: (1) 0.2 nM […] to determine total binding; (2) 0.2 nM radiolabeled sauvagine+1 μM R121919 (below)\nto determine non-CRF1 (e.g., CRF2) receptor binding; (3) 0.2 nM radiolabeled sauvagine+3 μM MPZP to determine non-CRF1 (e.g., CRF2) receptor binding using the experimental compound under study; (4) 0.2 nM radiolabeled sauvagine+0.3 μM unlabeled D-Phe-CRF12-41, a subtype-nonspecific CRF receptor antagonist, to determine non-CRF1/CRF2 (e.g., nonspecific binding). […]"}}, "data": [{"smiles": "COCCN(CCOC)c1cc(C)nc2c(-c3ccc(OC)cc3C)c(C)nn12", "note": "[MPZP, N,N-bis(2-methoxyethyl)-3-(4-methoxy-2-methylphenyl)-2,5-dimethyl-pyrazolo[1,5-a]pyrimidin-7-amine]", "values": [{"measurement": "anxiety-like behavior in the defensive burying test", "setting": "[1]", "value": "reduced anxiety-like behavior"}, {"measurement": "displacement of [125I]-Tyr0-sauvagine (CRF1-like binding)", "setting": "CRF1 receptors; cerebral cortex, concentration printed 1 mM", "value": "displaces the majority"}, {"measurement": "displacement of [125I]-Tyr0-sauvagine binding from CRF1-rich regions", "setting": "CRF1 receptors; cortex and basolateral amygdala, 3 μM", "value": "displaced most"}]}]}
